This is an account of results in patent US10357493B2, “Metalloenzyme inhibitor compounds” (Selenity Therapeutics (Bermuda), Ltd., priority 2017, dated 2019).

Structures are written as SMILES.

One experiment has as its target HDAC1 (Homo sapiens (Human), UniProt Q13547). The experiment in a line: HDAC1 enzymatic assay. The experiment is classed as biochemical. Conditions: read-out: Human HDAC1 IC50. The method, then:
(§1) All enzymatic reactions were conducted in duplicate at room temperature for 17 hours in a 50 μl mixture containing HDAC assay buffer (50 mM Tris-HCl, pH 7.4, 137 mM NaCl, 2.7 mM KCl, 0.05% Tween 20, 5 μg BSA), an HDAC substrate, an HDAC enzyme, and a test compound. Compound dilution was prepared ten-fold higher than the final concentration of the compounds with 10% DMSO in HDAC assay buffer and 5 μl of the dilution was added to a 50 μl reaction so that the final concentration of DMSO is 1% in all of reactions. After enzymatic reactions, 50 μl of HDAC Developer was added to each well and the plate was incubated at room temperature for an additional 20 minutes. Fluorescence intensity was measured at an excitation of 360 nm and an emission of 460 nm using a Tecan Infinite M1000 or Biotek Synergy microplate reader.
(§2) The fluorescent intensity data were analyzed using the computer software, Graphpad Prism. In the absence of the compound, the fluorescent intensity (Ft) in each data set was defined as 100% activity. In the absence of HDAC, the fluorescent intensity (Fb) in each data set was defined as 0% activity. The percent activity in the presence of each compound was calculated according to the following equation: % activity=(F−Fb)/(Ft−Fb), where F=the fluorescent intensity in the presence of the compound.
(§3) The values of % activity versus a series of compound concentrations were then plotted using non-linear regression analysis of Sigmoidal dose-response curve generated with the equation Y=B+(T−B)/1+10((Log EC50−X)×Hill Slope), where Y=percent activity, B=minimum percent activity, T=maximum percent activity, X=logarithm of compound and Hill Slope=slope factor or Hill coefficient. The IC50 value was determined by the concentration causing a half-maximal percent activity.
(§4) HDAC1 enzymatic assays contained 0.5 ng HDAC1 and 10 uM of HDAC substrate. HDAC2 enzymatic assays contained 0.5 ng HDAC2 and 10 uM of HDAC substrate. HDAC3 enzymatic assays contained 0.4 ng HDAC3/NCOR2 and 10 uM of HDAC substrate. HDAC4 enzymatic assays contained 0.02 ng HDAC4 and 2 uM of HDAC substrate. HDAC5 enzymatic assays contained 0.5 ng HDAC5 and 2 uM of HDAC substrate. HDAC6 enzymatic assays contained 2 ng HDAC6 and 10 uM of HDAC substrate. HDAC7 enzymatic assays contained 0.05 ng HDAC7 and 2 uM of HDAC substrate. HDAC8 enzymatic assays contained 5 ng HDAC8 and 2 uM of HDAC substrate. HDAC9 enzymatic assays contained 1 ng HDAC9 and 2 uM of HDAC substrate. HDAC10 enzymatic assays contained 75 ng HDAC10 and 10 uM of HDAC substrate. HDAC11 enzymatic assays contained 5 ng HDAC11 and 2 uM of HDAC substrate.

Another experiment concerns the target HDAC6 (Homo sapiens (Human), UniProt Q9UBN7). The experiment in a line: HDAC6 enzymatic assay. It is filed as biochemical. Conditions: read-out: Human HDAC6 IC50. The method, then:
as §1, §2, §3, §4

HDAC6, sequence (Q9UBN7 whole entry): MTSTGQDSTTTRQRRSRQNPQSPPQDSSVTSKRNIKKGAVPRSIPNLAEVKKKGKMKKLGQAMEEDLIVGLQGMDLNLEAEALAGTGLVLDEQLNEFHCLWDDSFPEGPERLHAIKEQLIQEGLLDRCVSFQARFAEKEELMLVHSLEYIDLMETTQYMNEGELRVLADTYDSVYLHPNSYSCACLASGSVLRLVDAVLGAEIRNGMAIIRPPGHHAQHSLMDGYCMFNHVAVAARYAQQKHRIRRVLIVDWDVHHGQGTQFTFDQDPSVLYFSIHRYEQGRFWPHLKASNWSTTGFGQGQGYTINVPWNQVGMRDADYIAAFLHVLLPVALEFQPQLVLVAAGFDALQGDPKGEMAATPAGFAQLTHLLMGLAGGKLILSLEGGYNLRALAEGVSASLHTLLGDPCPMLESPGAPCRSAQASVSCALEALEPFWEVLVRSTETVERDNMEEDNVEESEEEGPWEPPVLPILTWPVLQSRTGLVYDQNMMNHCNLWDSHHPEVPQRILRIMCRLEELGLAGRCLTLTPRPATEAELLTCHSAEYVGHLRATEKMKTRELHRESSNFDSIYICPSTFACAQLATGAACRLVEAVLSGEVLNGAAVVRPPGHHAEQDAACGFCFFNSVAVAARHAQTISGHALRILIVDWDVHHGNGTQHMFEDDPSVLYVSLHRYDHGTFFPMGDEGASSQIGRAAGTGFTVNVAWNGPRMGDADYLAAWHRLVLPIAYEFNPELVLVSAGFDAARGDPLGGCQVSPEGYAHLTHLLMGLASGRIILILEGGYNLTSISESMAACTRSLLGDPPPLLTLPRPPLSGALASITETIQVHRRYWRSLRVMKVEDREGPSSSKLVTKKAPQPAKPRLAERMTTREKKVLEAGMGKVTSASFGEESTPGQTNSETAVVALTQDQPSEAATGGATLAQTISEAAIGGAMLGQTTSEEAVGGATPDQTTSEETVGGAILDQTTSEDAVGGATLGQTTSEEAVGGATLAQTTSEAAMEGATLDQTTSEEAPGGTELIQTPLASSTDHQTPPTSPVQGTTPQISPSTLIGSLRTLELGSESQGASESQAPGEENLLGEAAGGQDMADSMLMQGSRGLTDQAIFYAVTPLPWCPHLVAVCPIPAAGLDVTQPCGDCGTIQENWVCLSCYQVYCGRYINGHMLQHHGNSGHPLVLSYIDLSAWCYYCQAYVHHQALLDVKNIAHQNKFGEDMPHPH
HDAC1, sequence (Q13547 whole entry): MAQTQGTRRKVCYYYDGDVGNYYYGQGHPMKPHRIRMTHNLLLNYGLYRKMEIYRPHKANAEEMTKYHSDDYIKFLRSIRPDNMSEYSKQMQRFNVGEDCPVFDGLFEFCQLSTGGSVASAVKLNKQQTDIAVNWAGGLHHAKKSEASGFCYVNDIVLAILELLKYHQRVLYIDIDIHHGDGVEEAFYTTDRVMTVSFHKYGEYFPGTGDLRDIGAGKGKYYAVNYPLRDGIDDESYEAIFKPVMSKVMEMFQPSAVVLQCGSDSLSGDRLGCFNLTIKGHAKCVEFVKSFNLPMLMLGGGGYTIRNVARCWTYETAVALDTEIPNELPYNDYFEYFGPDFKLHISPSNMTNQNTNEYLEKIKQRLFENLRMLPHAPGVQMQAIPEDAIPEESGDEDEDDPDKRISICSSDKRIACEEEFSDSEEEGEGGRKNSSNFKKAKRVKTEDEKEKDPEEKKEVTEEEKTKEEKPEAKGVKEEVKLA

As for `Fc1ccc(C(Cn2cc(C(F)(F)F)cn2)Nc2ncc(-c3nnc(C(F)F)o3)cn2)cc1` (single isomer, unassigned) [176(+), 5-(5-(difluoromethyl)-1,3,4-oxadiazol-2-yl)-N-(1-(4-fluorophenyl)-2-(4-(trifluoromethyl)-1H-pyrazol-1-yl)ethyl)pyrimidin-2-amine], the figures for the IC50 on HDAC1 and on HDAC6 were greater than 30000 nM and 160 nM, respectively.

For `Fc1ccc(C(Cn2cc(C(F)(F)F)cn2)Nc2ncc(-c3nnc(C(F)F)o3)cn2)cc1` (single isomer, unassigned) [176(−), 5-(5-(difluoromethyl)-1,3,4-oxadiazol-2-yl)-N-(1-(4-fluorophenyl)-2-(4-(trifluoromethyl)-1H-pyrazol-1-yl)ethyl)pyrimidin-2-amine], the values for the IC50 on HDAC1 and at HDAC6 were greater than 30000 nM and 1500 nM, respectively.

Take `O=C1CCCN1CC(Nc1ncc(-c2nnc(C(F)F)o2)cn1)c1ccc(F)cc1` (single isomer, unassigned) [177(+), 1-(2-((5-(5-(difluoromethyl)-1,3,4-oxadiazol-2-yl)pyrimidin-2-yl)amino)-2-(4-fluorophenyl)ethyl)pyrrolidin-2-one]: the IC50 – broadly, the concentration at which inhibition is half-maximal – on HDAC1 is greater than 30000 nM; on HDAC6 it was 110 nM.

As to `O=C1CCCN1CC(Nc1ncc(-c2nnc(C(F)F)o2)cn1)c1ccc(F)cc1` (single isomer, unassigned) [177(−), 1-(2-((5-(5-(difluoromethyl)-1,3,4-oxadiazol-2-yl)pyrimidin-2-yl)amino)-2-(4-fluorophenyl)ethyl)pyrrolidin-2-one], the IC50 at HDAC1 is greater than 30000 nM; at HDAC6, 76 nM.

For `CC(NS(C)(=O)=O)C(Nc1ncc(-c2nnc(C(F)F)o2)cn1)c1ccc(F)cc1` (single isomer, unassigned) [Example 127A, N-(1-((5-(5-(difluoromethyl)-1,3,4-oxadiazol-2-yl)pyrimidin-2-yl)amino)-1-(4-fluorophenyl)propan-2-yl)methanesulfonamide], the IC50 at HDAC1 was greater than 30000 nM; at HDAC6, 45 nM.

Turning to `CC(NS(C)(=O)=O)C(Nc1ncc(-c2nnc(C(F)F)o2)cn1)c1ccc(F)cc1` (single isomer, unassigned) [Example 127B, N-(1-((5-(5-(difluoromethyl)-1,3,4-oxadiazol-2-yl)pyrimidin-2-yl)amino)-1-(4-fluorophenyl)propan-2-yl)methanesulfonamide], the IC50 on HDAC1 was greater than 30000 nM; at HDAC6 it was 49 nM.

With `Fc1ccc(C(COC2CC2)Nc2ncc(-c3nnc(C(F)F)o3)cn2)c(F)c1` (single isomer, unassigned) [Example 134A, N-(2-cyclopropoxy-1-(2,4-difluorophenyl)ethyl)-5-(5-(difluoromethyl)-1,3,4-oxadiazol-2-yl)pyrimidin-2-amine], the IC50 was greater than 30000 nM on HDAC1 and 220 nM at HDAC6.

In the case of `Fc1ccc(C(CC(F)(F)F)Nc2ncc(-c3nnc(C(F)F)o3)cn2)cc1` (single isomer, unassigned; (+)) [13(+), (+)-5-(5-(difluoromethyl)-1,3,4-oxadiazol-2-yl)-N-(3,3,3-trifluoro-1-(4-fluorophenyl)propyl)pyrimidin-2-amine], the IC50 at HDAC1 was greater than 30000 nM; on HDAC6, 30 nM.

Take `CC(Nc1ncc(-c2nnc(C(F)F)o2)cn1)c1ccc(F)cc1` (single isomer, unassigned; (+)) [20(+), (+)-5-(5-(difluoromethyl)-1,3,4-oxadiazol-2-yl)-N-(1-(4-fluorophenyl)ethyl)pyrimidin-2-amine]: the IC50 on HDAC1 was greater than 30000 nM; on HDAC6 it was 21 nM.

Regarding `CC(Nc1ncc(-c2nnc(C(F)F)o2)cn1)c1c(F)cccc1F` (single isomer, unassigned; (+)) [100(+), (+)-5-(5-(difluoromethyl)-1,3,4-oxadiazol-2-yl)-N-(1-(2,6-difluorophenyl)ethyl)pyrimidin-2-amine], the IC50 is greater than 30000 nM on HDAC1 and 30 nM on HDAC6.

On to `O=S1(=O)CCCN1CC(Nc1ncc(-c2nnc(C(F)F)o2)cn1)c1ccc(F)cc1` (single isomer, unassigned; (+)) [120(+), (+)-2-(2-((5-(5-(difluoromethyl)-1,3,4-oxadiazol-2-yl)pyrimidin-2-yl)amino)-2-(4-fluorophenyl)ethyl)isothiazolidine 1,1-dioxide], for which the IC50 is greater than 30000 nM at HDAC1 and 37 nM at HDAC6.

For `Fc1ccc(C(CC(F)(F)F)Nc2ncc(-c3nnc(C(F)F)o3)cn2)cc1` (single isomer, unassigned; (-)) [13(−), (−)-5-(5-(difluoromethyl)-1,3,4-oxadiazol-2-yl)-N-(3,3,3-trifluoro-1-(4-fluorophenyl)propyl)pyrimidin-2-amine], the IC50 at HDAC1 is greater than 30000 nM; at HDAC6, 550 nM.

`CC(Nc1ncc(-c2nnc(C(F)F)o2)cn1)c1ccc(F)cc1` (single isomer, unassigned; (-)) [20(−), (−)-5-(5-(difluoromethyl)-1,3,4-oxadiazol-2-yl)-N-(1-(4-fluorophenyl)ethyl)pyrimidin-2-amine]: the IC50 on HDAC1 is greater than 30000 nM; on HDAC6, greater than 1000 nM.

With `CC(Nc1ncc(-c2nnc(C(F)F)o2)cn1)c1c(F)cccc1F` (single isomer, unassigned; (-)) [100(−), (−)-5-(5-(difluoromethyl)-1,3,4-oxadiazol-2-yl)-N-(1-(2,6-difluorophenyl)ethyl)pyrimidin-2-amine], the values for the IC50 at HDAC1 and at HDAC6 were greater than 30000 nM and greater than 1000 nM, respectively.

With `O=S1(=O)CCCN1CC(Nc1ncc(-c2nnc(C(F)F)o2)cn1)c1ccc(F)cc1` (single isomer, unassigned; (-)) [120(−), (−)-2-(2-((5-(5-(difluoromethyl)-1,3,4-oxadiazol-2-yl)pyrimidin-2-yl)amino)-2-(4-fluorophenyl)ethyl)isothiazolidine 1,1-dioxide], the figures for the IC50 at HDAC1 and at HDAC6 were greater than 30000 nM and 150 nM, respectively.

Turning to `CS(=O)(=O)N(CC(Nc1ncc(-c2nnc(C(F)F)o2)cn1)c1ccc(F)cc1F)CC(F)(F)F` (stereo not drawn) [138(+), N-(2-((5-(5-(difluoromethyl)-1,3,4-oxadiazol-2-yl)pyrimidin-2-yl)amino)-2-(2,4-difluorophenyl)ethyl)-N-(2,2,2-trifluoroethyl)methanesulfonamide], the IC50 at HDAC1 was greater than 30000 nM; on HDAC6, 75 nM.

Turning to `CCS(=O)(=O)N(C)CC(Nc1ncc(-c2nnc(C(F)F)o2)cn1)c1ccc(F)cc1F` (stereo not drawn) [140(+), N-(2-((5-(5-(difluoromethyl)-1,3,4-oxadiazol-2-yl)pyrimidin-2-yl)amino)-2-(2,4-difluorophenyl)ethyl)-N-methylethanesulfonamide], the IC50 at HDAC1 is greater than 30000 nM; on HDAC6, 58 nM.

Consider `CCS(=O)(=O)N(CC(Nc1ncc(-c2nnc(C(F)F)o2)cn1)c1ccc(F)cc1F)CC(F)(F)F` (stereo not drawn) [141(+), N-(2-((5-(5-(difluoromethyl)-1,3,4-oxadiazol-2-yl)pyrimidin-2-yl)amino)-2-(2,4-difluorophenyl)ethyl)-N-(2,2,2-trifluoroethyl)ethanesulfonamide], for which the IC50 was greater than 30000 nM on HDAC1 and 130 nM at HDAC6.

As to `CN(CC(Nc1ncc(-c2nnc(C(F)F)o2)cn1)c1ccc(F)cc1F)S(=O)(=O)C1CC1` (stereo not drawn) [143(+), N-(2-((5-(5-(difluoromethyl)-1,3,4-oxadiazol-2-yl)pyrimidin-2-yl)amino)-2-(2,4-difluorophenyl)ethyl)-N-methylcyclopropanesulfonamide], the IC50 at HDAC1 was greater than 30000 nM; on HDAC6, 53 nM.
